Measurements as given in US20240018115A1, “ALLOSTERIC CHROMENONE INHIBITORS OF PHOSPHOINOSITIDE 3-KINASE (PI3K) FOR THE TREATMENT OF DISEASE” (Petra Pharma Corporation, priority 2022, published 2024).

Biological target: T1, PI3K-Alpha kinase H1047R mutant (Homo sapiens, UniProt P42336, H1047R)
T1 construct: host or cells: MDA-MB-453
Test: PI3K-Alpha Kinase (PIK3CA) Activity, H1047R Mutant In Vitro Cell Based Assay (MDA-MB-453 cells, AlphaLisa SureFire Ultra)
Conditions: 0% FBS, 3 hours treatment, relative IC50
Method: PI3K-Alpha Kinase (PIK3CA) Activity, H1047R Mutant In Vitro Cell Based Assay and Determining IC50 Values for Inhibitors
The MDA-MB-453 (ATCC-HTB-131) cell line was obtained from the American Type Culture Collection (Manassas, VA). Cells were maintained in Dulbecco's Modified Eagle Media (DMEM, Gibco 11965-092) supplemented with 10% Fetal Bovine Serum, heat inactivated (FBS HI, Gibco 10082-147), 1× non-essential amino acids (NEAA, Gibco 11140-050), and 1 mM sodium pyruvate (Gibco 11360-070). Cultures were maintained in a humidified incubator at 37° C. under 5% CO2/95% air.
For compound testing in 0% FBS, MDA-MB-453 cells were seeded at a density of 1.5×10^4 cells per well in white 384-well plates in 20 μl of Minimum Essential Media (MEM) assay media with 1×NEAA, 1 mM sodium pyruvate, and 1 μg/mL human insulin (Sigma I9278). Compounds dissolved in 10 mM stock solutions in DMSO were serially diluted 1:3 in DMSO to generate a 10-point dilution series and plated using an acoustic liquid handler system (Echo 550 Series Liquid Handler, Labcyte). A 5× intermediate compound dilution plate in MEM with 1×NEAA and 1 mM sodium pyruvate (150 μM starting compound concentration in 1.5% DMSO) was then prepared. Five μl of the intermediate serially diluted compounds were added to the cell plate to final concentrations ranging from […] in 0.3% DMSO. 0.3% DMSO alone was used to establish the maximum (MAX) signal and GDC-0032 at a final concentration of 1 μM was used as a reference compound for the minimum (MIN) signal. After 3 hours treatment, the medium was removed, and the cells lysed in 10 μL of 1× SureFire Lysis buffer with shaking for 10 minutes at room temperature. The Acceptor Mix (Reaction Buffer 1+Reaction Buffer 2+Activation Buffer+SureFire Ultra Acceptor Beads) was prepared by diluting Activation buffer 25-fold in combined Reaction Buffer 1 and Reaction Buffer 2. The Acceptor beads were diluted 50-fold in the combined Reaction Buffers. Five μL of Acceptor Mix was added to each well, the plate was sealed and covered with foil and incubated for 1 hour at room temperature. The Donor Mix (dilution buffer+SureFire Ultra Donor Beads) was prepared by diluting Donor Beads 50-fold in dilution buffer. Five μL of the Donor Mix was added to each well and the plate sealed and covered with foil and incubated for 1 hour at room temperature in the dark. The plates were read on a Neo2 plate reader instrument from Biotek using standard AlphaLisa settings. Compounds were tested in duplicate and the average % inhibition at each compound concentration was used to generate a single dose response curve. The data were processed using the Genedata-Screener tool. Relative IC50 values were determined using luminescence units by calculating percent inhibition with respect to the in-plate “MIN” (GDC-0032 reference control) and “MAX” (DMSO) controls. The data was analyzed using a 4-parameter nonlinear logistic equation (four-parameter logistic concentration-response curve):
Y=bottom+[(top−bottom)/1+(X/IC50)slope]
where Y=% inhibition, X=concentration of inhibitor, bottom=minimum value of y attained by curve-fit, top=maximum value of y attained by curve-fit and slope=steepness of curve at the IC50.
% Inhibition=[(signal at X−median Min)/(median Max−median Min)]×100
IC50: concentration of compound that reduces a given response (ligand binding, enzyme response) by 50%. Relative IC50: concentration giving half the compound's maximum response.

T1 sequence (P42336 whole entry H1047R): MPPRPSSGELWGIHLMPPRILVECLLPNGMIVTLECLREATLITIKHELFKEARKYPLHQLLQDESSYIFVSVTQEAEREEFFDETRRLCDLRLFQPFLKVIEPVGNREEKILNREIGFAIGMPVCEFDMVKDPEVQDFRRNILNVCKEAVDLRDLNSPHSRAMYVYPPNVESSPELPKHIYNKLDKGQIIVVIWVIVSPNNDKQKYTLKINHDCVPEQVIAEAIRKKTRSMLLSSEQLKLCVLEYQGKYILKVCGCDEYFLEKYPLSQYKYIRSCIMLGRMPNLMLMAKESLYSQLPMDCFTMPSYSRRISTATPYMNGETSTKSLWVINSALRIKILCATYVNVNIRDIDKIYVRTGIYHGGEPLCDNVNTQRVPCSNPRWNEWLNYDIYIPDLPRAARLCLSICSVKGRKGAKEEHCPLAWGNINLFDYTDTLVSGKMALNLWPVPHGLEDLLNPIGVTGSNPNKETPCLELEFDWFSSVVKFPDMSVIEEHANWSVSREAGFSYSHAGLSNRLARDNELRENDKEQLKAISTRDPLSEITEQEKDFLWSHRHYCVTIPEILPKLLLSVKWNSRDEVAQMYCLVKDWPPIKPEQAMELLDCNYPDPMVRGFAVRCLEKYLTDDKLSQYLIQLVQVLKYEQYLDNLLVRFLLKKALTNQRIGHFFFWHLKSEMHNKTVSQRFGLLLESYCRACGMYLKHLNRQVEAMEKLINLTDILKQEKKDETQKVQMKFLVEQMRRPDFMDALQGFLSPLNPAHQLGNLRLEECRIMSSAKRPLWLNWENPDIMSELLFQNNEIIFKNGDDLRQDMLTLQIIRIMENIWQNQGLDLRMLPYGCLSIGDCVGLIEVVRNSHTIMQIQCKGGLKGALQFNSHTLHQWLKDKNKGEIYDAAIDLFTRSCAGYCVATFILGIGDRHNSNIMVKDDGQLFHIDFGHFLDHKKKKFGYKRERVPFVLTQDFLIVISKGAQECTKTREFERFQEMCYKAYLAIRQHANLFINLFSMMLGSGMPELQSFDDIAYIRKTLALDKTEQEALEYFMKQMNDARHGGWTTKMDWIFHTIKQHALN
T1 sequence (P27986 whole entry partner): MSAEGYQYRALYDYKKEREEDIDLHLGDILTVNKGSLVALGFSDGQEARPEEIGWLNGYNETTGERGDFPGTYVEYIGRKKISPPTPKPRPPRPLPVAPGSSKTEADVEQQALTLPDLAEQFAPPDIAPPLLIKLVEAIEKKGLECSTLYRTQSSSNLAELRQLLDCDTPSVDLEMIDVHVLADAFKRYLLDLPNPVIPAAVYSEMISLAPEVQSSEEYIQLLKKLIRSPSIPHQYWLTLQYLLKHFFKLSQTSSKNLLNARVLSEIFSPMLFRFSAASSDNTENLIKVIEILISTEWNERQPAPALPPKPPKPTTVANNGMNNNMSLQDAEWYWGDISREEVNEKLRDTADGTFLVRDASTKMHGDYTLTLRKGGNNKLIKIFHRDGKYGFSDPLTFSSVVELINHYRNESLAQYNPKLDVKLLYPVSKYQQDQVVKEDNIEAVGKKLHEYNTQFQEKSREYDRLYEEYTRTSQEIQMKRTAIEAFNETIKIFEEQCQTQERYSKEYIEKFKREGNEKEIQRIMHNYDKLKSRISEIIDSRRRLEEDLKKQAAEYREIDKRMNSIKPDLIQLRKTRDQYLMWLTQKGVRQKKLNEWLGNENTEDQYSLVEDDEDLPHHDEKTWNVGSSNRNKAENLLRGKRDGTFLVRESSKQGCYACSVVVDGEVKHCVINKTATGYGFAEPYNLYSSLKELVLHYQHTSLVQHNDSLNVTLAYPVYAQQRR

IC50	SMILES
< 500 nM	Cc1cc([C@@H](C)Nc2cccnc2C(=O)N[C@@H]2CCOC2)c2oc(-c3ccccc3)c(C)c(=O)c2c1 [Example 178A, 3-[[(1R)-1-(3,6-Dimethyl-4-oxo-2-phenyl-chromen-8-yl)ethyl]amino]-N-[(3R)-tetrahydrofuran-3-yl]pyridine-2-carboxamide]
< 500 nM	Cc1cc([C@@H](C)Nc2ccccc2CO)c2oc(-c3cccnc3)c(C)c(=O)c2c1 [Example 224C, 8-[(1R)-1-[2-(Hydroxymethyl)anilino]ethyl]-3,6-dimethyl-2-(3-pyridyl)chromen-4-one]
